PubChem BioAssay (NCI)
Values joined by “and” are separate entries in the source; they are usually repeats but may differ in a detail not shown here. Equal entries are not always repeated.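 These data come from cells grown in 96-well plates and exposed to compound for 48 hours at five concentrations. The concentration for 50% growth inhibition is given as GI50. TGI marks complete inhibition of growth.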

What was measured:
Test in all cases: NCI tumour cell line growth inhibition, 48 h
KM20L2 colon = system: KM20L2 colon
DMS 114 small cell lung = system: DMS 114 small cell lung
HOP-18 NSCLC = system: HOP-18 NSCLC
XF 498 CNS = system: XF 498 CNS
SN12K1 renal = system: SN12K1 renal
P388/ADR leukemia = system: P388/ADR leukemia
SNB-78 CNS = system: SNB-78 CNS
DMS 273 small cell lung = system: DMS 273 small cell lung
P388 leukemia = system: P388 leukemia
MDA-N = system: MDA-N
M19-MEL melanoma = system: M19-MEL melanoma
RXF-631 renal = system: RXF-631 renal

| Compound | TGI (KM20L2 colon) | TGI (DMS 114 small cell lung) | TGI (HOP-18 NSCLC) [µM] | TGI (XF 498 CNS) | TGI (SNB-78 CNS) | TGI (DMS 273 small cell lung) | TGI (MDA-N) | TGI (M19-MEL melanoma) | TGI (RXF-631 renal) [µM] | other results |
| --- | --- | --- | --- | --- | --- | --- | --- | --- | --- | --- |
| COc1cc(C2c3cc4c(cc3[C@@H](Nc3cccc(O)c3)C3COC(=O)[C@H]23)OCO4)cc(OC)c1O (stereo partly specified) | 17.6 µM | 5.21 µM | 33 | 0.985 µM and 8.34 µM | 65.1 µM | 6 µM | 20.5 µM | 18.9 µM |  | GI50 (DMS 114 small cell lung): 0.49 µM; GI50 (XF 498 CNS): 0.52 µM; TGI (SN12K1 renal): 7.81 µM; TGI (P388/ADR leukemia): 1.65 µM; GI50 (SNB-78 CNS): 0.906 µM; GI50 (DMS 273 small cell lung): 0.404 µM; TGI (P388 leukemia): 0.507 µM; GI50 (M19-MEL melanoma): 0.747 µM |
| Cc1cccc(CC(C)(C)C)c1NC(=O)C(=O)C(C(=O)c1ccc2ccccc2c1)C1OC(=O)c2ccccc21 (stereo unspecified) |  | 56.7 µM |  |  | > 100 µM |  |  | 64.1 µM |  |  |
| Cc1[nH]c(=O)nc(N/N=C/c2ccc(O)cc2)c1C(=O)Nc1ccc(Cl)cc1 | > 100 µM | > 100 µM | > 100 |  | > 100 µM | > 100 µM |  | > 100 µM | > 100 |  |
| CCCOc1c2cc(COC3OC(CO)C(O)C(O)C3O)cc1Cc1cc(COC3OC(CO)C(O)C(O)C3O)cc(c1OCCC)Cc1cc(COC3OC(CO)C(O)C(O)C3O)cc(c1OCCC)Cc1cc(COC3OC(CO)C(O)C(O)C3O)cc(c1OCCC)C2 (stereo unspecified) |  |  |  |  |  |  | > 100 µM and 34.8 µM |  |  | GI50 (MDA-N): > 100 µM and 18.4 µM |
| COc1cc(CC(=O)c2ccc3c(c2)OCO3)cc(OC)c1OC | > 100 µM | 92.7 µM | > 100 |  | > 100 µM |  |  | > 100 µM | > 100 |  |
| N#CC1(C#N)C2C=CC(C3CCC=C32)C1(C#N)C#N (stereo unspecified) |  |  |  |  |  |  | > 10 µM |  |  |  |
| Cc1cccc(N2C(=O)/C(=C/c3ccc(N(CCC#N)CCC#N)cc3C)N=C2c2cc([N+](=O)[O-])ccc2Cl)c1 |  | > 100 µM | > 100 |  |  | > 100 µM |  | > 100 µM | > 100 |  |
| Cc1nc(C(N)=S)sc1C(=O)CC(=O)C(=O)Nc1cccc(Cl)c1C |  |  |  |  |  |  | > 100 µM |  |  |  |
| Cc1cc(N)c2ccccc2[n+]1CCCCCCCCCC[n+]1c(C)cc(N)c2ccccc21 |  |  |  |  |  |  | 6.08 µM and 6.72 µM |  |  | GI50 (MDA-N): 2.13 µM |
| CCOC(=O)NNC(=O)NC12CC3CC(CC(C3)C1)C2 | > 100 µM | > 100 µM | > 100 | > 100 µM | > 100 µM | > 100 µM |  | > 100 µM |  |  |
| CCCCCCCCC(=O)NCCCNCCCNC(=O)CCCCCCCC | 6.31 µM | 8.79 µM | 26.6 | 9.22 µM | 26 µM | 6.03 µM |  | 8.38 µM |  |  |
| Cc1ns/c(=N\C(=S)N(C)C)n1C | > 100 µM | > 100 µM | > 100 | > 100 µM | > 100 µM | > 100 µM |  |  | > 100 |  |
| Nc1ccc2c(c1)CN1C(=O)c3ccccc3C1=N2 | > 125 µM | > 125 µM | > 125 |  | > 79.4 µM | > 125 µM | > 125 µM | > 125 µM |  | TGI (SN12K1 renal): > 72.4 µM; TGI (P388/ADR leukemia): > 125 µM; TGI (P388 leukemia): > 125 µM; GI50 (M19-MEL melanoma): 54.8 µM |
| O=C1c2cccc3cccc(c23)C(=O)N1CCCN1CCN(CCCN2C(=O)c3cccc4cccc(c34)C2=O)CC1 | > 100 µM | > 100 µM | > 100 | > 100 µM | > 100 µM | > 100 µM |  | > 100 µM | > 100 |  |
| N#CC(=C=[N-])[n+]1ccc(Cl)cc1 | 65.4 µM | 26.9 µM |  | 33.4 µM | 42.4 µM | 46.2 µM |  | 27.8 µM | 52.5 |  |
| COC(=O)C1CCC(=NC2c3ccccc3-c3ccccc32)N1 (stereo unspecified) | > 100 µM | > 100 µM | > 100 | > 100 µM | > 100 µM | > 100 µM |  | > 100 µM | > 100 |  |
| O=C1c2ccccc2C(=O)c2c1ccc1c3ccccc3n(Cc3ccccc3)c21 |  | > 100 µM | 0.0908 | > 100 µM |  |  |  | > 100 µM |  |  |

| Compound | TGI (KM20L2 colon) | TGI (DMS 114 small cell lung) | TGI (HOP-18 NSCLC) [µM] | TGI (XF 498 CNS) | TGI (SNB-78 CNS) | TGI (DMS 273 small cell lung) | TGI (MDA-N) | TGI (M19-MEL melanoma) | TGI (RXF-631 renal) [µM] | other results |
| --- | --- | --- | --- | --- | --- | --- | --- | --- | --- | --- |
| C/C(=N/Nc1ccc([N+](=O)[O-])cc1[N+](=O)[O-])C(CC(C(=O)Nc1ccccc1C)/C(C)=N\Nc1ccc([N+](=O)[O-])cc1[N+](=O)[O-])C(=O)Nc1ccccc1C (stereo unspecified) | > 88.3 µM | 17.7 µM | 28.9 | 33.8 µM | 52.2 µM | 41.7 µM |  | 28.1 µM |  |  |
| O=C1/C(=C/c2ccccc2)CN(C(=O)Oc2ccc([N+](=O)[O-])cc2)C/C1=C\c1ccccc1 | 8.2 µM | 4.63 µM and 3.84 µM |  |  | 28.5 µM | 2.94 µM and 3.17 µM |  | 3.56 µM and 2.75 µM |  | GI50 (KM20L2 colon): 3.9 µM; GI50 (DMS 114 small cell lung): 1.68 µM; GI50 (DMS 273 small cell lung): 1.22 µM; GI50 (M19-MEL melanoma): 1.26 µM |
| O=C(CC(C(=O)O)N1CCOCC1)c1ccccc1 (stereo unspecified) |  |  |  |  |  |  | 36.8 µM |  |  |  |
| CCOC(=N)CC(=O)NC(C)c1ccccc1 (stereo unspecified) | > 100 µM |  | > 100 | > 100 µM | > 100 µM | > 100 µM |  | > 100 µM | > 100 |  |
| O=C(OCc1nc2ccc(Br)cc2c(=O)n1-c1ccccc1)c1ccccc1O | > 100 µM |  |  | > 100 µM | > 100 µM |  |  | > 100 µM |  |  |
| CC(C)(C)NCCC(O)c1cc(C(F)(F)F)nc2c(C(F)(F)F)cccc12 (stereo unspecified) |  |  |  |  |  |  | 24 µM |  |  |  |
| O=[N+]([O-])O.[NH-]C1CCCCC1[NH-].[NH-]C1CCCCC1[NH-].[NH-]C1CCCCC1[NH-].[OH-].[OH-].[OH-].[Pt+4].[Pt+4].[Pt+4] (stereo unspecified) |  |  |  |  |  |  | 6.74 µM |  |  | GI50 (MDA-N): 0.205 µM |
| C/C(=N\NC(=S)N1CCC(C2CCN(C(=S)N/N=C(\C)c3ccccn3)CC2)CC1)c1ccccn1 | > 100 µM |  | > 100 | 86.5 µM | > 100 µM | > 100 µM |  | > 100 µM | > 100 |  |
| O=C1CC2Sc3ccccc3N=C2N1c1ccc(Cl)cc1Cl (stereo unspecified) | > 100 µM | > 100 µM | > 100 | > 100 µM | > 100 µM |  |  | > 100 µM | > 100 |  |
| CN1c2ccccc2C(=O)Nc2cnc(Cl)nc21 |  |  |  |  |  |  | > 100 µM |  |  |  |
| CCCCCCCCCCCCCCCC(=O)N[C@H]1CCc2cc(OC)c(OC)c(OC)c2-c2ccc(SC)c(=O)cc21 | 0.344 µM and 3.4 µM |  | 36.9 | 8.5 µM and 8.63 µM | 80 µM and 25.7 µM |  |  | 13.6 µM and 13.7 µM |  | GI50 (KM20L2 colon): 1.59 µM; GI50 (XF 498 CNS): 2.18 µM; GI50 (SNB-78 CNS): 0.669 µM; GI50 (M19-MEL melanoma): 3.15 µM |
| CC[C@@]1(OC(=O)CN(C)C)C(=O)OCc2c1cc1n(c2=O)Cc2cc3ccccc3nc2-1 | 4.94 µM | 1.53 µM |  | 3.19 µM | > 100 µM | 0.149 µM | 1.92 µM and 3.8 µM | 2.13 µM and 1.09 µM |  | GI50 (HOP-18 NSCLC): 0.113 µM; GI50 (SNB-78 CNS): 0.957 µM; GI50 (M19-MEL melanoma): 0.101 µM |
| COC(=O)C(=O)C(C(=O)C(=O)Nc1ccccc1C(N)=O)c1nc2ccc(C(=O)c3ccccc3)cc2[nH]c1=O (stereo unspecified) | > 100 µM | > 100 µM | > 100 | > 100 µM | > 100 µM | > 100 µM |  | > 100 µM | > 100 |  |
| COc1ccccc1NC(=O)C(=O)C1C(=O)Nc2ccccc2S1=O (stereo unspecified) | > 100 µM | > 100 µM | > 100 | > 100 µM | > 100 µM | > 100 µM |  | > 100 µM | > 100 |  |
| CCN1CC2(C)CC[C@@H](OC)C34[C@@H]2[C@H](OC(C)=O)C2(OCO[C@@]25C[C@H](OC)C2C[C@]3(O)[C@@H]5[C@H]2O)[C@H]14 | > 100 µM | > 100 µM |  |  | > 100 µM |  |  | > 100 µM |  |  |
| CCC1NCC(=O)c2c1[nH]c1ccccc21 (stereo unspecified) | > 100 µM | > 100 µM | > 100 |  | > 100 µM | > 100 µM |  | > 100 µM |  |  |
| CC(C)=C1CCC(CN2CCCC2)C1=O (stereo unspecified) | > 100 µM | 37 µM | 32.7 | 34 µM | > 100 µM | > 100 µM |  | 37.4 µM | > 100 |  |
